Structures can show the parent of a compound that is named as a salt.
tested on: not given; experiment: not given; conditions: not given

| SMILES | melting point [°C] |
| --- | --- |
| Cc1ncc(-c2ccc(Cl)cc2)c(NC2CCCC2)n1 | 103 to 106 |
| Cc1ncc(-c2cnc(C(F)(F)F)nc2)c(NC2CCCC2)n1 (as salt: hydrochloride) [Example 54, N-cyclopentyl-2-methyl-2′-(trifluoromethyl)-5,5′-bipyrimidin-4-amine hydrochloride] | 249 to 254 |
| Cc1ccc(-c2c(NC3CCCC3)nc(C)nc2NC2CCCC2)cc1 [Example 20, 5-(4-methylphenyl)-N,N′-dicyclopentyl-2-methylpyrimidine-4,6-diamine] | 115 to 128 |
| Cc1cccc(-c2c(NC3CCCC3)nc(C)nc2NC2CCCC2)c1 [Example 22, 5-(3-methylphenyl)-N,N′-dicyclopentyl-2-methylpyrimidine-4,6-diamine] | 95 to 98 |
| Cc1ncc(-c2ccc(C(=O)O)cc2)c(NC2CCCC2)n1 [Example 27, 4-[4-(cyclopentylamino)-2-methylpyrimidin-5-yl]benzoic acid] | 252 to 255 |
| Cc1ncc(-c2cccc(C(F)(F)F)c2)c(NC2CCCC2)n1 [Example 29, N-cyclopentyl-2-methyl-5-[3-(trifluoromethyl)phenyl]pyrimidin-4-amine] | 105 to 108 |
| Cc1ncc(-c2cc(C(F)(F)F)cc(C(F)(F)F)c2)c(NC2CCCC2)n1 [Example 30, 5-[3,5-bis(trifluoromethyl)phenyl]-N-cyclopentyl-2-methylpyrimidin-4-amine] | 124 to 126 |
| COc1ccc(-c2cnc(C)nc2NC2CCCC2)cc1OC [Example 31, N-cyclopentyl-5-(3,4-dimethoxyphenyl)-2-methylpyrimidin-4-amine] | 143 to 145 |
| Cc1ncc(-c2ccc(C(N)=O)cc2)c(NC2CCCC2)n1 [Example 32, 4-[4-(cyclopentylamino)-2-methylpyrimidin-5-yl]benzamide] | 226 to 228 |
| Cc1ncc(-c2ccc([N+](=O)[O-])cc2)c(NC2CCCC2)n1 [Example 33, N-cyclopentyl-2-methyl-5-(4-nitrophenyl)pyrimidin-4-amine] | 185 to 188 |
| Cc1ncc(-c2ccc(C#N)cc2)c(NC2CCCC2)n1 [Example 36, 4-[4-(cyclopentylamino)-2-methylpyrimidin-5-yl]benzonitrile] | 176 to 180 |
| Cc1ncc(-c2ccc(F)cc2)c(NC2CCCC2)n1 [Example 39, N-cyclopentyl-5-(4-fluorophenyl)-2-methylpyrimidin-4-amine] | 83 to 86 |
| Cc1ncc(-c2ccc(C(F)(F)F)cc2C(F)(F)F)c(NC2CCCC2)n1 [Example 41, 5-[2,4-bis(trifluoromethyl)phenyl]-N-cyclopentyl-2-methylpyrimidin-4-amine] | 128 to 132 |
| Cc1ncc(-c2ccccc2C(F)(F)F)c(NC2CCCC2)n1 [Example 44, N-cyclopentyl-2-methyl-5-[2-(trifluoromethyl)phenyl]pyrimidin-4-amine] | 80 to 84 |
| Cc1ncc(-c2ccc(C(F)(F)F)cc2Cl)c(NC2CCCC2)n1 [Example 45, 5-[2-chloro-4-(trifluoromethyl)phenyl]-N-cyclopentyl-2-methylpyrimidin-4-amine] | 120 to 132 |
| CC(=O)Nc1ccc(-c2cnc(C)nc2NC2CCCC2)cc1 [Example 46, N-{4-[4-(cyclopentylamino)-2-methylpyrimidin-5-yl]phenyl}acetamide] | 203 to 210 |
| Cc1ncc(-c2ccc(C(F)(F)F)cn2)c(NC2CCCC2)n1 [Example 47, Cyclopentyl-[2-methyl-5-(5-trifluoromethyl-pyridin-2-yl)-pyrimidin-4-yl]-amine] | 130 to 133 |
| Cc1ncc2c3ccc(C(F)(F)F)cc3n(C3CCCC3)c2n1 [Example 48, 9-cyclopentyl-2-methyl-7-(trifluoromethyl)-9H-pyrimido[4,5-b]indole] | 133 to 134 |
| Cc1ncc(-c2ccc3nonc3c2)c(NC2CCCC2)n1 [Example 49, 5-(2,1,3-benzoxadiazol-5-yl)-N-cyclopentyl-2-methylpyrimidin-4-amine] | 165 to 167 |
| C#Cc1nc(C)nc(NC2CCCC2)c1-c1ccc(C(F)(F)F)cc1 [Example 50, N-cyclopentyl-6-ethynyl-2-methyl-5-[4-(trifluoromethyl)phenyl]pyrimidin-4-amine] | 159 to 162 |
| Cc1ncc(-c2ccc(P(=O)(O)O)cc2)c(NC2CCCC2)n1 [Example 51, {4-[4-(cyclopentylamino)-2-methylpyrimidin-5-yl]phenyl}-phosphonic acid] | 254 to 259 |
| Cc1ncc2c3ccc(C(F)(F)F)cc3c(=O)n(C3CCCC3)c2n1 [Example 53, 5-cyclopentyl-3-methyl-8-(trifluoromethyl)pyrimido[4,5-c]-isoquinolin-6(5H)-one] | 137 to 141 |
| Cc1ncc(C#Cc2ccc(C(F)(F)F)cc2)c(NC2CCCC2)n1 [Example 55, N-cyclopentyl-2-methyl-5-{[4-(trifluoromethyl)phenyl]ethynyl}-pyrimidin-4-amine] | 90 to 93 |
| Cc1ncc(-c2ccc(C(F)(F)F)cc2)c(NC2CCCCNC2=O)n1 (centres unmarked) [Example 62, 3-[2-Methyl-5-(4-trifluoromethyl-phenyl)-pyrimidin-4-ylamino]-azepan-2-one] | 191 to 196 |
| CCc1nc(NC2CCCC2)c(-c2ccccc2)c(NC2CCCC2)n1 [Example 65, N,N′-Dicyclopentyl-2-ethyl-5-phenyl-pyrimidine-4,6-diamine] | 70 to 71 |

molecular target: T1, human GABA-B1b/rat GABA-B2 (UniProt O88871+Q9UBS5); experiment: GTPγ[35S] binding, enhancement of GABA-induced binding; format: biochemical; conditions: 1 μM of GABA, 2.5 μM of Cpd; relative to basal activity
T1 construct: expressed in transfected cells; host or cells: CHO-K1 cell line (membranes)
Procedure: In the functional GTP(γ)^35S assay (Lorenzen A, Fuss M, Vogt H, Schwabe U. Measurement of guanine nucleotide-binding protein activation by A1 adenosine receptor agonists in bovine brain membranes. Stimulation of guanosine-5′-O-(3-[^35S]thio)triphosphate binding. Mol. Pharmacol. 1993; 44:115-123) the agents of the invention enhance the GABA-induced GTP( ? )^35S binding at recombinant GABAB receptors with EC50 values of about 0.1 μM to about 50 μM.
GTPγ[^35S] binding. The assay mixtures contained 10 μg f membranes from a human GABA-B1b/rat GABA-B2 expressing CHO-K1 cell line in 50 mM Tris-HCl buffer, pH 7.7; 10 mM MgCl2; 1.8 mM CaCl2; 100 mM NaCl 30 μM guanosine 5′-diphosphate (30 μM; Sigma), 0.2 nM [^35S]GTP(γ)S, and test compounds (Urwyler et al, 2001). 96-well Packard Pico-plates (300 μl volume) were used. Non-specific binding was measured in the presence of unlabelled GTP(γ)S (10 μM, Sigma). The reagents were incubated for 40 min at room temperature and subsequently filtered (Packard unifilter-GF/C). After two washes with assay buffer as above the plates were dried for one hour at 50° C., 50 μl of scintillation solution (Microscint) was added and the radioactivity counted. For data analysis, non-specific binding was subtracted from all the other values; the compound effects were expressed relative to basal activity. Prism 3.0 software (Graph Pad software, San Diego, Calif.) was used for all data calculations. (Urwyler S, Mosbacher J, Lingenhoehl K, Heid J, Hofstetter K, Froestl W, Bettler B, Kaupmann K. Mol. Pharmacol. 2001, 60:963-71).

T1 sequence (Q9UBS5 1-844 isoform Q9UBS5-2): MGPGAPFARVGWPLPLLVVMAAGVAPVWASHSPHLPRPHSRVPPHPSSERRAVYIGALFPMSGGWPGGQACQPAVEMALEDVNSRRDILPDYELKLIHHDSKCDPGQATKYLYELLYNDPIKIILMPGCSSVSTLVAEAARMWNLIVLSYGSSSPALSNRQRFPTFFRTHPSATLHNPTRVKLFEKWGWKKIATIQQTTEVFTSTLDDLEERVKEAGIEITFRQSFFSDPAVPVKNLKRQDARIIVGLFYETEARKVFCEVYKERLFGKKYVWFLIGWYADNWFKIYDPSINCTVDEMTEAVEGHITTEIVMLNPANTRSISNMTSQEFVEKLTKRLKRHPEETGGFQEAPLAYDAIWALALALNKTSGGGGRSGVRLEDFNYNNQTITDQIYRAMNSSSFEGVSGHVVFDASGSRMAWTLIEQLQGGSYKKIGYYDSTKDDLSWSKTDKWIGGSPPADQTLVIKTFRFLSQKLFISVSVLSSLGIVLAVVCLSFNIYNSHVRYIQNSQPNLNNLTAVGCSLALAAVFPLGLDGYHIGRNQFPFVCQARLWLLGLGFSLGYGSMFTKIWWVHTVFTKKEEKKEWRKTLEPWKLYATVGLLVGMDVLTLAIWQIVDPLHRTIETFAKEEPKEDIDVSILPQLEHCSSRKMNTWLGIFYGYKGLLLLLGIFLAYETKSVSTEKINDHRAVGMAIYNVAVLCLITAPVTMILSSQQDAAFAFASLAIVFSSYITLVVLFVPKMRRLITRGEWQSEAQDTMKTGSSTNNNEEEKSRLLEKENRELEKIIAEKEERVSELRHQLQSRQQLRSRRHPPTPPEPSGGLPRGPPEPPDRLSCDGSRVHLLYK
T1 sequence (O88871 41-940): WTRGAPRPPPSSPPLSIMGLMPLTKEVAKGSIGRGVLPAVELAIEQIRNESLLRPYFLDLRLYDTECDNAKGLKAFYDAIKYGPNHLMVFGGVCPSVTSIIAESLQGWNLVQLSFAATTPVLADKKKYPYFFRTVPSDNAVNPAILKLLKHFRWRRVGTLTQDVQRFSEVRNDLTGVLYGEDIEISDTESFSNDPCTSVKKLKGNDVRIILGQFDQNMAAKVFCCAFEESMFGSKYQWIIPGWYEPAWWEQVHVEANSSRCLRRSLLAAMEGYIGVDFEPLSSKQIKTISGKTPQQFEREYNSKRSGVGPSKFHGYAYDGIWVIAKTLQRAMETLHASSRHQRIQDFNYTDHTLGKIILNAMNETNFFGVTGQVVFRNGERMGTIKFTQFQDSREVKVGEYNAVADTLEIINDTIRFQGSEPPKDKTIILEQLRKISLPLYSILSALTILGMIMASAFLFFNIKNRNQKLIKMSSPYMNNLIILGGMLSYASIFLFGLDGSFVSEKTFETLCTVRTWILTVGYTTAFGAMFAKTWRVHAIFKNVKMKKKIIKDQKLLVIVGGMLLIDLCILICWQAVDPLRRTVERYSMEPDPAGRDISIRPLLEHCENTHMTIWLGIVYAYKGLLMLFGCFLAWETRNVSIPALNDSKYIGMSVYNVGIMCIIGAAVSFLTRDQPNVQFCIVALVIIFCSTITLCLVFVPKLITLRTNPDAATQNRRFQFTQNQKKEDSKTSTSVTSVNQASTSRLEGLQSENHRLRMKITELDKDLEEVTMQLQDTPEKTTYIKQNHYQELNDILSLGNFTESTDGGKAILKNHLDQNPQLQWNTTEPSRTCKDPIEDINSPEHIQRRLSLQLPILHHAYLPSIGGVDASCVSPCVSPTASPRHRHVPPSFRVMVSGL

| SMILES | Biological activity (%) |
| --- | --- |
| Cc1ncc(-c2ccc(C(F)(F)F)cc2)c(NC2CCCCNC2=O)n1 (centres unmarked) [Example 62, 3-[2-Methyl-5-(4-trifluoromethyl-phenyl)-pyrimidin-4-ylamino]-azepan-2-one] | 77 |

same assay, conditions: 1 μM of GABA, 25 μM of Cpd; relative to basal activity

| SMILES | Biological activity (%) |
| --- | --- |
| Cc1ncc(-c2ccc(C(F)(F)F)cc2)c(NC2CCCCNC2=O)n1 (centres unmarked) [Example 62, 3-[2-Methyl-5-(4-trifluoromethyl-phenyl)-pyrimidin-4-ylamino]-azepan-2-one] | 129 |

same assay, conditions: 20 μM of GABA, 2.5 μM of Cpd; relative to basal activity

| SMILES | Biological activity (%) |
| --- | --- |
| Cc1ncc(-c2ccc(C(F)(F)F)cc2)c(NC2CCCCNC2=O)n1 (centres unmarked) [Example 62, 3-[2-Methyl-5-(4-trifluoromethyl-phenyl)-pyrimidin-4-ylamino]-azepan-2-one] | 159 |

same assay, conditions: 20 μM of GABA, 25 μM of Cpd; relative to basal activity

| SMILES | Biological activity (%) |
| --- | --- |
| Cc1ncc(-c2ccc(C(F)(F)F)cc2)c(NC2CCCCNC2=O)n1 (centres unmarked) [Example 62, 3-[2-Methyl-5-(4-trifluoromethyl-phenyl)-pyrimidin-4-ylamino]-azepan-2-one] | 192 |

— patent US20100179127A1, “PYRIMIDINE DERIVATIVES” (priority 2005, published 2010)
